Reference: patent US10017504B2, “Piperidine isoxazole and isothiazole orexin receptor antagonists” (MERCK SHARP & DOHME CORP., priority 2014, dated 2018)

Biological target: human orexin-2 receptor (Homo sapiens (Human), UniProt O43614)
Test: FLIPR Ca2+ Flux Assay, orexin-2 receptor
Type: cell-based
Conditions: CHO cells expressing the human orexin-2 receptor; agonist 70 pM Ala-6,12 human orexin-A; read-out: hOX2 FLIPR IC50
Protocol: In a typical experiment the OX1 and OX2 receptor antagonistic activity of the compounds of the present invention was determined in accordance with the following experimental method. For intracellular calcium measurements, Chinese hamster ovary (CHO) cells expressing the rat orexin-1 receptor or the human orexin-2 receptor, are grown in Iscove's modified DMEM containing 2 mM L-glutamine, […], 1% hypoxanthine-thymidine supplement, 100 U/ml penicillin, 100 μg/ml streptomycin and 10% heat-inactivated fetal calf serum (FCS). The cells are seeded at 20,000 cells/well into Becton-Dickinson black 384-well clear bottom sterile plates coated with poly-D-lysine. All reagents are from GIBCO-Invitrogen Corp. The seeded plates are incubated overnight at 37° C. and 5% CO2. Ala-6,12 human orexin-A as the agonist is prepared as a 1 mM stock solution in 1% bovine serum albumin (BSA) and diluted in assay buffer (HBSS containing 20 mM HEPES, 0.1% BSA and 2.5 mM probenecid, pH7.4) for use in the assay at a final concentration of 70 pM. Test compounds are prepared as 10 mM stock solution in DMSO, then diluted in 384-well plates, first in DMSO, then assay buffer. On the day of the assay, cells are washed 3 times with 100 μl assay buffer and then incubated for 60 min (37° C., 5% CO2) in 60 μl assay buffer containing 1 μM Fluo-4AM ester, 0.02% pluronic acid, and 1% BSA. The dye loading solution is then aspirated and cells are washed 3 times with 100 μl assay buffer. 30 μl of that same buffer is left in each well. Within the Fluorescent Imaging Plate Reader (FLIPR, Molecular Devices), test compounds are added to the plate in a volume of 25 μl, incubated for 5 min and finally 25 μl of agonist is added. Fluorescence is measured for each well at 1 second intervals for 5 minutes and the height of each fluorescence peak is compared to the height of the fluorescence peak induced by 70 pM Ala-6,12 orexin-A with buffer in place of antagonist. […] The intrinsic orexin receptor antagonist activity of a compound which may be used in the present invention may be determined by these assays.

human orexin-2 receptor, sequence (O43614 whole entry): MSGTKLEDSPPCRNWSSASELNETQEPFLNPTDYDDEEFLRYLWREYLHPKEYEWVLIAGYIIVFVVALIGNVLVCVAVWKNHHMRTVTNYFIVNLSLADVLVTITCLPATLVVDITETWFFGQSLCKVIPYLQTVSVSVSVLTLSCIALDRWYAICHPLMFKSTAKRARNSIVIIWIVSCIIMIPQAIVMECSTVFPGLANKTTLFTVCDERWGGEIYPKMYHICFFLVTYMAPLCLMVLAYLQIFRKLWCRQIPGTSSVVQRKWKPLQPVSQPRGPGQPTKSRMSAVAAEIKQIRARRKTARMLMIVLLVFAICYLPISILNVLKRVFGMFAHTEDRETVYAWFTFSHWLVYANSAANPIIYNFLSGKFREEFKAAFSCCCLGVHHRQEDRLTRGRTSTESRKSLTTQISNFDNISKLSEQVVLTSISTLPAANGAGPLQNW

## C[C@@H]1CC[C@@H](c2cc([C@H](O)C(F)(F)F)no2)CN1C(=O)c1ccccc1-n1ncnn1 [Example 47, (1S)-2,2,2-Trifluoro-1-{5-[(3R,6R)-6-methyl-1-{[2-(2H-tetrazol-2-yl)phenyl]carbonyl}piperidin-3-yl]isoxazol-3-yl}ethanol]
  IC50: 328 nM

## COC(=O)c1ccccc1C(=O)N1C[C@H](c2cc(C(C)(C)O)sn2)CC[C@H]1C [Example 67, Methyl 2-({(2R,5R)-5-[5-(1-hydroxy-1-methylethyl)isothiazol-3-yl]-2-methylpiperidin-1-yl}carbonyl)benzoate]
  IC50: 43.6 nM

## C[C@@H]1CC[C@@H](c2cc(C(C)(C)O)sn2)CN1C(=O)c1cscc1-n1nccn1 [Example 66, 2-{3-[(3R,6R)-6-Methyl-1-{[4-(2H-1,2,3-triazol-2-yl)thiophen-3-yl]carbonyl}piperidin-3-yl]isothiazol-5-yl}propan-2-ol]
  IC50: 21.1 nM

## CCOc1ccccc1C(=O)N1C[C@H](c2cc(C(C)(C)O)no2)CC[C@H]1C [Example 31, 2-(5-{(3R,6R)-1-[(2-Ethoxyphenyl)carbonyl]-6-methylpiperidin-3-yl}isoxazol-3-yl)propan-2-ol]
  IC50: 178 nM

## CCOc1ncccc1C(=O)N1C[C@H](c2cc(C(C)(C)O)no2)CC[C@H]1C [Example 23, 2-(5-{(3R,6R)-1-[(2-Ethoxypyridin-3-yl)carbonyl]-6-methylpiperidin-3-yl}isoxazol-3-yl)propan-2-ol]
  IC50: 268 nM

## COC(C)(C)c1cc([C@@H]2CC[C@@H](C)N(C(=O)c3ccccc3-n3nccn3)C2)no1 [Example 19, (2R,5R)-5-[5-(1-methoxy-1-methylethyl)isoxazol-3-yl]-2-methyl-1-{[2-(2H-1,2,3-triazol-2-yl)phenyl]carbonyl}piperidine]
  IC50: 27.3 nM

## C[C@@H]1CC[C@@H](c2cc(C(C)(O)C3CC3)no2)CN1C(=O)c1ccccc1-n1nccn1 (single isomer, unassigned) [Example 53]
  IC50: 34.3 nM

## C[C@@H]1CC[C@@H](c2cc([C@@H](O)C(F)(F)F)no2)CN1C(=O)c1ccccc1-c1ncccn1 [Example 50, (1R)-2,2,2-Trifluoro-1-(5-{(3R,6R)-6-methyl-1-[(2-pyrimidin-2-ylphenyl)carbonyl]piperidin-3-yl}isoxazol-3-yl)ethanol]
  IC50: 110 nM

## C[C@@H]1CC[C@@H](c2cc(C(C)(C)O)no2)CN1C(=O)c1cccnc1-c1ccccc1 [Example 33, 2-(5-{(3R,6R)-6-Methyl-1-[(2-phenylpyridin-3-yl)carbonyl]piperidin-3-yl}isoxazol-3-yl)propan-2-ol]
  IC50: 134 nM

## C[C@@H]1CC[C@@H](c2cc(C(C)(O)C3CC3)on2)CN1C(=O)c1ccccc1-n1nccn1 (single isomer, unassigned) [Example 9]
  IC50: 25.8 nM

## C[C@@H]1CC[C@@H](c2cc(C(C)(C)O)sn2)CN1C(=O)c1ccsc1-c1ncccn1 [Example 64, 2-(3-{(3R,6R)-6-Methyl-1-[(2-pyrimidin-2-ylthiophen-3-yl)carbonyl]piperidin-3-yl}isothiazol-5-yl)propan-2-ol]
  IC50: 36.8 nM

## C[C@@H]1CC[C@@H](c2cc(C3CCCO3)no2)CN1C(=O)c1ccccc1-n1nccn1 (stereo partly drawn) [Example 56, (2R,5R)-2-Methyl-5-[3-(tetrahydrofuran-2-yl)isoxazol-5-yl]-1-{[2-(2H-1,2,3-triazol-2-yl)phenyl]carbonyl}piperidine]
  IC50: 311 nM

## C[C@@H]1CC[C@@H](c2cc([C@@H](O)C(F)(F)F)no2)CN1C(=O)c1ccccc1-n1ncnn1 [Example 46, (1R)-2,2,2-Trifluoro-1-{5-[(3R,6R)-6-methyl-1-{[2-(2H-tetrazol-2-yl)phenyl]carbonyl}piperidin-3-yl]isoxazol-3-yl}ethanol]
  IC50: 356 nM

## C[C@@H]1CC[C@@H](c2cc(C(C)(C)O)no2)CN1C(=O)c1nccnc1-c1ccccn1 [Example 28, 2-(5-{(3R,6R)-6-Methyl-1-[(3-pyridin-2-ylpyrazin-2-yl)carbonyl]piperidin-3-yl}isoxazol-3-yl)propan-2-ol]
  IC50: 1420 nM

## C[C@@H]1CC[C@@H](c2cc(C(C)(C)O)no2)CN1C(=O)c1ccccc1-c1cnccn1 [Example 37, 2-(5-{(3R,6R)-6-Methyl-1-[(2-pyrazin-2-ylphenyl)carbonyl]piperidin-3-yl}isoxazol-3-yl)propan-2-ol]
  IC50: 1030 nM

## C[C@@H]1CC[C@@H](c2cc([C@H](O)C(F)(F)F)no2)CN1C(=O)c1ccccc1-n1nccn1 [Example 41, (1S)-2,2,2-trifluoro-1-{5-[(3R,6R)-6-methyl-1-{[2-(2H-1,2,3-triazol-2-yl)phenyl]carbonyl}piperidin-3-yl]isoxazol-3-yl}ethanol]
  IC50: 17.5 nM

## C[C@@H]1CC[C@@H](c2cc(C(C)(C)O)no2)CN1C(=O)c1ccccc1C1CC1(F)F (stereo partly drawn) [Example 38, 2-{5-[(3R,6R)-1-{[2-(2,2-Difluorocyclopropyl)phenyl]carbonyl}-6-methylpiperidin-3-yl]isoxazol-3-yl}propan-2-ol]
  IC50: 52.4 nM

## COC(C)(C)c1cc([C@@H]2CC[C@@H](C)N(C(=O)c3ccccc3-n3nccn3)C2)on1 [Example 57, (2R,5R)-5-[3-(1-Methoxy-1-methylethyl)isoxazol-5-yl]-2-methyl-1-{[2-(2H-1,2,3-triazol-2-yl)phenyl]carbonyl}piperidine]
  IC50: 14.4 nM

## C[C@@H]1CC[C@@H](c2cc(C(C)(C)O)on2)CN1C(=O)c1cc(F)ccc1-n1nccn1 [Example 4, (5-Fluoro-2-(2H-1,2,3-triazol-2-yl)phenyl)((2R,5R)-5-(5-(2-hydroxypropan-2-yl)isoxazol-3-yl)-2-methylpiperidin-1-yl)methanone]
  IC50: 278 nM

## C[C@@H]1CC[C@@H](c2cc([C@H](O)C(F)(F)F)no2)CN1C(=O)c1ccsc1-n1nccn1 [Example 43, (1S)-2,2,2-trifluoro-1-{5-[(3R,6R)-6-methyl-1-{[2-(2H-1,2,3-triazol-2-yl)thiophen-3-yl]carbonyl}piperidin-3-yl]isoxazol-3-yl}ethanol]
  IC50: 162 nM

## C[C@@H]1CC[C@@H](c2cc(C(C)(C)O)sn2)CN1C(=O)c1ccc(F)cc1-n1nccn1 [Example 61, 2-{3-[(3R,6R)-1-{[4-Fluoro-2-(2H-1,2,3-triazol-2-yl)phenyl]carbonyl}-6-methylpiperidin-3-yl]isothiazol-5-yl}propan-2-ol]
  IC50: 18.6 nM

## C[C@@H]1CC[C@@H](c2cc(C(C)(C)O)sn2)CN1C(=O)c1ccccc1-n1ncnn1 [Example 60, 2-{3-[(3R,6R)-6-Methyl-1-{[2-(2H-tetrazol-2-yl)phenyl]carbonyl}piperidin-3-yl]isothiazol-5-yl}propan-2-ol]
  IC50: 63.8 nM

## C[C@@H]1CC[C@@H](c2cc(C(C)(C)O)no2)CN1C(=O)c1ncccc1-c1ccccc1 [Example 34, 2-(5-{(3R,6R)-6-Methyl-1-[(3-phenylpyridin-2-yl)carbonyl]piperidin-3-yl}isoxazol-3-yl)propan-2-ol]
  IC50: 264 nM

## CCC(O)(CC)c1cc([C@@H]2CC[C@@H](C)N(C(=O)c3ccccc3-n3nccn3)C2)no1 [Example 8, (2-(2H-1,2,3-triazol-2-yl)phenyl)((2R,5R)-5-(5-(3-hydroxypentan-3-yl)isoxazol-3-yl)-2-methylpiperidin-1-yl)methanone]
  IC50: 552 nM

## C[C@@H]1CC[C@@H](c2cc([C@@H](O)C(F)(F)F)no2)CN1C(=O)c1ccsc1-n1nccn1 [Example 42, (1R)-2,2,2-Trifluoro-1-{5-[(3R,6R)-6-methyl-1-{[2-(2H-1,2,3-triazol-2-yl)thiophen-3-yl]carbonyl}piperidin-3-yl]isoxazol-3-yl}ethanol]
  IC50: 154 nM

## CC[C@@H]1CC[C@@H](c2cc(C(C)(C)O)no2)CN1C(=O)c1ccccc1-n1nccn1 [Example 39, 2-{5-[(3R,6R)-6-Ethyl-1-{[2-(2H-1,2,3-triazol-2-yl)phenyl]carbonyl}piperidin-3-yl]isoxazol-3-yl}propan-2-ol]
  IC50: 42.4 nM

## CCOc1ccccc1C(=O)N1C[C@H](c2cc(C(C)(C)O)on2)CC[C@H]1C [Example 5, (2-Ethoxyphenyl)((2R,5R)-5-(5-(2-hydroxypropan-2-yl)isoxazol-3-yl)-2-methylpiperidin-1-yl)methanone]
  IC50: 1190 nM

## C[C@@H]1CC[C@@H](c2cc(C(C)(C)O)no2)CN1C(=O)c1ccccc1-c1ncccn1 [Example 22, 2-(5-{(3R,6R)-6-Methyl-1-[(2-pyrimidin-2-ylphenyl)carbonyl]piperidin-3-yl}isoxazol-3-yl)propan-2-ol]
  IC50: 51.4 nM

## C[C@@H]1CC[C@@H](c2cc([C@H](O)C(F)(F)F)no2)CN1C(=O)c1ccsc1-c1ncccn1 [Example 48, (1S)-2,2,2-Trifluoro-1-(5-{(3R,6R)-6-methyl-1-[(2-pyrimidin-2-ylthiophen-3-yl)carbonyl]piperidin-3-yl}isoxazol-3-yl)ethanol]
  IC50: 113 nM
